Source: patent US20060128702A1, “Heterocyclic and bicyclic compounds, compositions and methods” (priority 2004, published 2006)

What was measured:
[1] = test system: IL-6 (interleukin-6) expression; assay: IL-6 ELISA (inflammation assay in HAECs); format: cell-based; settings: endothelial cell media; TNFα (0.5 ng/mL) or glycated human serum albumin (300 μg/mL), 18-24 h; read-out: IC50, IL-6 enzyme-linked immunosorbent assay
Description: (§1) For inflammation assays, human aortic endothelial cells (HAECs) in 96 well plates were washed once with treatment medium (basal medium containing 1% FBS). Cells were treated with an inflammatory agent such as TNFα (0.5 ng/mL) or glycated human serum albumin (US Biologicals) as source of advanced glycation end products (AGEs) (300 μg/mL) for 18-24 h in the presence or absence of specified amount of compound. Cell supernatants were collected and used for measuring MCP-1 (monocyte chemoattractant protein 1) or IL-6 (interleukin-6) expression by ELISA. Cell layers were washed and used for determining vascular cell adhesion molecule-1 (VCAM-1) expression.
IL-6 expression in endothelial cell media were determined using DuaSet IL-6 ELISA kit from R&D Systems (Cat No DY206) as described by the manufacturer. Mouse anti-human IL-6 antibody was used as the capture antibody and biotinylated goat anti-human IL-6 was used as detection antibody. Culture medium was incubated with the capture antibody (in 96-well plate) for 2 h at room temperature. Wells were washed three times with wash buffer (0.05% Tween-20 in PBS) followed by incubation with detection antibody for 2 h at room temperature. The wells were then incubated with streptavidin HRP and color development was read at 450 nm in a microplate reader.

[2] = test system: MCP-1 (monocyte chemoattractant protein 1) expression; assay: MCP-1 ELISA (inflammation assay in HAECs); format: cell-based; settings: Endothelial cell; HAEC supernatants; TNFα (0.5 ng/mL) or glycated human serum albumin (300 μg/mL), 18-24 h; read-out: IC50, MCP-1 enzyme-linked immunosorbent assay
Description: as §1
MCP-1 ELISA was carried out using Quantikine Human MCP-1 kit as described by the manufacturer (R&D Systems, Inc.). Mouse anti-human MCP-1 was used as the capture antibody and HRP (horse radish peroxidase)-conjugated goat anti-human MCP-1 antibody was used as detection antibody. Culture medium was incubated with the capture antibody (in 96-well plate) for 2 h at room temperature. Wells were washed three times with wash buffer (0.05% Tween-20 in PBS) followed by incubation with detection antibody for 2 h at room temperature. Color development was read at […] in a microplate reader.

[3] = test system: vascular cell adhesion molecule-1 (VCAM-1) expression; assay: VCAM-1 ELISA (inflammation assay in HAECs); format: cell-based; settings: HAEC cell layers; TNFα (0.5 ng/mL) or glycated human serum albumin (300 μg/mL), 18-24 h; read-out: IC50, VCAM-1 enzyme-linked immunosorbent assay
Description: as §1
The cells were fixed cells with 100% methanol for 10 min at room temperature. The methanol was removed and the plate was air-dried. 100 μl of 1:1000 diluted primary antibody (polyclonal goat anti-human VCAM-1—R&D Systems #BBA19) was then added and incubated for 2 h at 37 C. The cells were washed with PBS and 100 μl of 1:5000 dilution of secondary antibody (rabbit anti-goat IgG-HRP—Zymed #81-1620) was added and incubated for 1 h at room temperature. Cells were washed and 100 μl of substrate solution (R&D Systems# DY999) was added and incubated for 20 min in the dark at room temp. 50 μl of stop solution (2N sulfuric acid) was added to the wells and absorbency at 450 nm was noted.

[4] = test system: human aortic smooth muscle cells; assay: Smooth muscle cell proliferation assay; format: cell-based; settings: human aortic SMC, growth medium containing serum, 24 h post treatment; for IC50: read-out: Effect: concentration giving 50% inhibition of smooth muscle cell proliferation
Description: Primary cultures of human aortic smooth muscle cells were obtained from Clonetics. SMC were initially grown in T-75 flasks prior to seeding in 96 well plates. The 96-well plates were seeded with 4000 cells/well. The following day cells were washed with serum free medium and left in serum free media for 24 hours for serum starvation. The next day cells received growth medium containing serum with or without compound. The 24 h post treatment cell proliferation was assayed either assessing the incorporation of radiolabeled thymidine to DNA or using a non-radioactive cell proliferation kit from Promega (CellTiter AQ).

| melting point [°C] | IC50 [2] [nM] | IC50 [3] [nM] | Structure (SMILES) | further results |
| --- | --- | --- | --- | --- |
| > 220 | – | – | COc1ccc(Nc2nc(-c3ccncc3)nc3ccccc23)cc1Cl [E 2, (3-Chloro-4-methoxy-phenyl)-(2-pyridin-4-yl-quinazolin-4-yl)-amine] | – |
| 280 to 282 | – | – | Oc1ccc(-c2nc(-c3ccncc3)nc3ccccc23)c(O)c1 [E 3, 4-(2-Pyridin-4-yl-quinazolin-4-yl)-benzene-1,3-diol] | – |
| 178 to 180 | – | – | Oc1ccc(-c2nc(-c3ccccc3)nc3ccccc23)c(O)c1 [E 4, 4-(2-Phenyl-quinazolin-4-yl)-benzene-1,3-diol] | – |
| 272 to 274 | – | – | COc1ccc(Nc2cc(-c3ccccc3)nc3ccccc23)cc1Cl [E 5, (3-Chloro-4-methoxy-phenyl)-(2-phenyl-quinolin-4-yl)-amine] | IC50 [1]: 2000 nM |
| 154 to 156 | – | – | COc1ccc(Nc2nc(-c3ccc(F)cc3)cc3ccc(C)cc23)cc1Cl [E 6, (3-Chloro-4-methoxy-phenyl)-[3-(4-fluoro-phenyl)-7-methyl-isoquinolin-1-yl]-amine] | – |
| 163 to 165 | 5000 | – | COc1ccc(Nc2nc(-c3ccc(F)cc3)cc3ccc(C)cc23)cc1F [E 7, (3-Fluoro-4-methoxy-phenyl)-[3-(4-fluoro-phenyl)-7-methyl-isoquinolin-1-yl]-amine] | – |
| 274 to 276 | 5000 | 3500 | COc1cc(Nc2cc(-c3ccc(F)cc3)nc3ccccc23)ccc1Cl [E 13, (4-Chloro-3-methoxy-phenyl)-[2-(4-fluoro-phenyl)-quinolin-4-yl]-amine] | – |
| 98 to 100 | 4200 | 5000 | FC(F)(F)c1ccn(-c2cc(-c3ccc4c(c3)OCO4)nc3ccccc23)n1 [E 15, 2-Benzo[1,3]dioxol-5-yl-4-(3-trifluoromethyl-pyrazol-1-yl)-quinoline] | – |
| 194 to 196 | – | – | CS(=O)(=O)c1ccc(-c2cc(-n3ccc(C(F)(F)F)n3)c3ccccc3n2)cc1 [E 17, 2-(4-Methanesulfonyl-phenyl)-4-(3-trifluoromethyl-pyrazol-1-yl)-quinoline] | – |
| 128 to 130 | 1000 | 1000 | FC(F)(F)Oc1ccc(Nc2cc(-n3ccc(C(F)(F)F)n3)c3ccccc3n2)cc1 [E 19, (4-Trifluoromethoxy-phenyl)-[4-(3-trifluoromethyl-pyrazol-1-yl)-quinolin-2-yl]-amine] | – |
| 118 to 120 | – | – | FC(F)(F)c1ccn(-c2cc(N3CCOCC3)nc3ccccc23)n1 [E 20, 2-Morpholin-4-yl-4-(3-trifluoromethyl-pyrazol-1-yl)-quinoline] | – |
| 194 to 196 | 9000 | 8100 | CS(=O)(=O)c1ccc(Nc2cc(-n3ccc(C(F)(F)F)n3)c3ccccc3n2)cc1 [E 23, (4-Methanesulfonyl-phenyl)-[4-(3-trifluoromethyl-pyrazol-1-yl)-quinolin-2-yl]-amine] | – |

More lines, now with the values behind:

| Structure (SMILES) | melting point [°C] | IC50 [2] [nM] | IC50 [3] [nM] | further results |
| --- | --- | --- | --- | --- |
| COc1ccc(Nc2cc(-c3ccncc3)nc3ccccc23)cc1Cl [E 1, (3-Chloro-4-methoxy-phenyl)-(2-pyridin-4-yl-quinolin-4-yl)-amine] | 280 to 282 | – | – | – |
| COc1ccc(Nc2cc(-c3ccc(F)cc3)nc3ccccc23)cc1Cl [E 8, (3-Chloro-4-methoxy-phenyl)-[2-(4-fluoro-phenyl)-quinolin-4-yl]-amine] | 260 | 2100 | 3600 | inhibition at 1 µM ([4]; at 1 μM, read-out: Effect: % inhibition of smooth muscle cell proliferation): 77% |
| c1ccc(-c2cc(-n3ccc4ccccc43)c3ccccc3n2)cc1 [E 9, 4-Indol-1-yl-2-phenyl-quinoline] | 100 to 102 | – | – | – |
| Clc1ccc2c(ccn2-c2cc(-c3ccccc3)nc3ccccc23)c1 [E 10, 4-(5-Chloro-indol-1-yl)-2-phenyl-quinoline] | 148 to 150 | – | – | – |
| Fc1ccc(-c2cc(-n3ccc(C(F)(F)F)n3)c3ccccc3n2)cc1 [E 11, 2-(4-Fluoro-phenyl)-4-(3-trifluoromethyl-pyrazol-1-yl)-quinoline] | – | – | – | IC50 [4]: 1000 nM |
| CSc1ccc(-c2cc(-n3ccc(C(F)(F)F)n3)c3ccccc3n2)cc1 [E 16, 2-(4-Methylsulfanyl-phenyl)-4-(3-trifluoromethyl-pyrazol-1-yl)-quinoline] | 116 to 118 | – | – | IC50 [4]: 1160 nM |
| FC(F)(F)Oc1ccc(-c2cc(-n3ccc(C(F)(F)F)n3)c3ccccc3n2)cc1 [E 18, 2-(4-Trifluoromethoxy-phenyl)-4-(3-trifluoromethyl-pyrazol-1-yl)-quinoline] | 108 to 110 | – | – | IC50 [4]: 2330 nM |
| CNS(=O)(=O)c1ccc(Nc2cc(-n3ccc(C(F)(F)F)n3)c3ccccc3n2)cc1 [E 21, N-Methyl-4-[4-(3-trifluoromethyl-pyrazol-1-yl)-quinolin-2-ylamino]-benzenesulfonamide] | 220 to 222 | 430 | 610 | – |
| CNC(=O)c1ccc(Nc2cc(-n3ccc(C(F)(F)F)n3)c3ccccc3n2)cc1 [E 22, N-Methyl-4-[4-(3-trifluoromethyl-pyrazol-1-yl)-quinolin-2-ylamino]-benzamide] | 250 to 252 | 750 | 2100 | – |
